What was measured:
[1] = system: amino acid starvation response pathway; assay: Amino acid starvation response (eIF2α phosphorylation, ATF4, AAR genes) in T cells; format: cell-based, mouse; conditions: for eIF2α phosphorylation and ATF4 expression: 1 μg/ml tunicamycin
Method: FIG. 4C is a graph depicting results of quantitative real-time PCR performed on cDNA generated from unstimulated naïve T cells or those activated for 4 hours in the presence of 10 nM MAZ1310 or 10 nM HF. Asns, Gpt2 or eIF4Ebp1 mRNA expression was normalized to Hprt levels and data are presented as mean values ±SD in duplicate samples.
FIG. 4D depicts western blot analysis of purified CD4^+ CD25^− T cells either unstimulated, or TCR-activated without exogenous cytokines in the presence of DMSO, 40 nM MAZ1310 or titrating concentrations of HF (1.25-40 nM). Whole cell lysates were prepared 4 hours-post TCR activation and immunoblotting was performed with the indicated antibodies. ATF4 protein is indicated by arrowhead. NS—non-specific band.
FIG. 4E depicts western blot analysis of purified CD4^+ CD25^− T cells activated through the TCR for the indicated times without exogenous cytokines in the presence of either 10 nM MAZ1310 or 10 nM HF as indicated. Whole cell lysates were prepared during the timecourse and immunoblotting was performed.
FIG. 4F depicts western blot analysis of CD4^+ CD25^− T cells either left unstimulated or were TCR-activated in the absence or presence of the indicated polarizing cytokine conditions and 10 nM MAZ1310 or 10 nM HF as indicated. Whole cell lysates were generated 4 hours after activation and immunoblotting was performed. Microarray data were generated from three independent experiments and all other data are representative of at least two similar experiments.
(§1) FIG. 5. […] FIG. 5A depicts western blot and Xbp1 splicing analysis of CD4^+ CD25^− T cells left unstimulated, or activated through the TCR for 4 hours in complete medium (complete—200 μM Cys/100 μM Met), medium lacking Cys/Met (−Cys/Met) or complete medium containing 1 μg/ml tunicamycin, 10 nM HF or 10 nM MAZ1310. Western blotting was performed on whole cell extracts with the indicated antibodies. Xbp-1 splicing assay was performed on cDNA synthesized from T cell cultures.
T cells were activated as described above, collected at the indicated times and pellets were flash-frozen in liquid nitrogen. Total RNA was obtained by RNeasy (Quiagen—Valencia, Calif.) column purification per manufacturers instructions. RORγt expression was determined after reverse transcription using the message sensor kit (Ambion—Austin, Tex.) per the manufacturer's instructions and taqman primers and probe as described elsewhere (Ivanov et al., Cell 126:1121, 2006). Sybrgreen quantitative real-time PCR was performed on T cell RNA samples following reverse transcription via SuperScript II first-strand cDNA synthesis kit (Invitrogen—Carlsbad, Calif.). All PCR data was collected on an iCycler thermal cycler (Biorad—Hercules, Calif.). Primer sequences used for detecting stress response genes are listed below.
Whole cell lysates were generated from T cells activated for the indicated times. For STAT3 and Smad2/3 western blots cells were harvested, washed in PBS and lysed in 50 mM Tris, pH 7.4, 0.1% SDS, 1% Triton-X 100, 140 mM NaCl, 1 mM EDTA, 1 mM EGTA supplemented with protease inhibitors tablets (Roche—Germany), 1 mM NaF and 1 mM Na3VO4. For eIF2α and ATF4 western blots, cells were harvested as above and lysed in 50 mM Tris, pH 7.4, 2% SDS, 20% glycerol and 2 mM EDTA supplemented with protease and phosphatase inhibitors as above. All lysates were cleared via centrifugation and 15-30 μg of protein was resolved by SDS-PAGE. Protein was transferred to nitrocellulose membranes, blocked and blotted using specific antibodies. Antibodies used for western blot analysis were anti-phospho-Smad2, anti-STAT3 (pY705), anti-STAT3, anti-eIF2α^ps51, anti-eIF2α (all from cell signaling technology—Danvers, Mass.). Anti-ATF4/CREB2 and anti-β-actin were purchased from Santa Cruz Biotechnology (Santa Cruz, Calif.). HRP-conjugated secondary antibodies were all purchased from Sigma, with the exception of HRP-conjugated anti-armenian hamster antibody (Jackson Immunoresearch—West Grove, Pa.). […]

Xbp-1 splicing = assay: ER stress / unfolded protein response (Xbp-1 splicing) in T cells; format: cell-based, mouse; conditions: for Xbp-1 splicing: TCR activation 4 hours, 1 μg/ml tunicamycin, 10 nM HF
Method: as §1

[2] = TCR activation 4 hours, 10 nM HF

| Compound | eIF2α phosphorylation and ATF4 expression [1, 2] | Xbp-1 splicing (Xbp-1 splicing) | time to maximum eIF2α phosphorylation ([1]; 10 nM HF) | time until which ATF4 protein continued to accumulate ([1]; 10 nM HF) | ATF4 expression in differentiated and naïve T cells ([1]; 10 nM HF, 4 hours) | eIF2α phosphorylation in resting naïve T cells and ThN, Th1, Th2, iTreg, Th17 conditions ([1]; 10 nM HF, 4 hours) | AAR-associated genes (Asns, Gpt2, eIF4Ebp1) by qPCR ([1]; 10 nM HF, within 4 hours of T cell activation) | effect of added proline on HF-induced eIF2alpha phosphorylation ([1]; 10 nM halofuginone, 1 mM amino acid) | eif2alpha Ser51 phosphorylation in wild type and GCN2−/− T cells ([1]; 10 nM, TCR activation 4 hours) | concentration at which eIF2α phosphorylation plateaued ([1]; 4 hours post TCR activation) | concentration giving detectable eIF2α phosphorylation ([1]; 4 hours post TCR activation) | concentration with highest ATF4 expression levels ([1]; 4 hours post TCR activation) | concentrations at which ATF4 expression was reduced ([1]; 4 hours post TCR activation) | expression of hallmark ER stress response genes (Xbp-1 splicing) |
| --- | --- | --- | --- | --- | --- | --- | --- | --- | --- | --- | --- | --- | --- | --- |
| tunicamycin | induced eIF2α phosphorylation and ATF4 expression | together with Xbp-1 splicing | – | – | – | – | – | – | – | – | – | – | – | – |
| O=C(CC1NCCCC1O)Cn1cnc2cc(Br)c(Cl)cc2c1=O (racemic) [HF, halofuginone] | inducing eIF2α phosphorylation | without promoting Xbp-1 splicing | ≤ 2 h | 4 h | induced ATF4 expression in all differentiated T cells, but not in naïve T cells | induced eIF2α phosphorylation | induced | blocked by added proline | leads to phosphorylation of Ser51 of eif2alpha only in wild type cells and not in GCN2^−/− cells | 5 to 10 nM | 2.5 nM | 5 to 10 nM | 20 to 40 nM | did not induce |
